EC50 data for 1 substance are collected here from publication PMC8353271, “Functional Characterization of Olfactory Receptors in the Thyroid Gland” (Frontiers in Physiology, 2021).

The target of the experiment is T1, OR2H2 (Homo sapiens, UniProt O95918).
T1 sequence (O95918 1-312): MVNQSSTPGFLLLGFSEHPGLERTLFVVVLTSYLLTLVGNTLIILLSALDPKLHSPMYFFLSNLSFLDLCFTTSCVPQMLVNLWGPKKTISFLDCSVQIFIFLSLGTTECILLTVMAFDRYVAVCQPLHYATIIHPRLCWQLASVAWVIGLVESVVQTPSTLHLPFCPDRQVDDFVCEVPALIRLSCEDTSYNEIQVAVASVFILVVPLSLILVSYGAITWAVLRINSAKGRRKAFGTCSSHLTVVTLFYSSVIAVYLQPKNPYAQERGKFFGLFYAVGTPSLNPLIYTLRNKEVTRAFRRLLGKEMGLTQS
As to the kind of experiment: Fura-2 Ca2+ imaging in Nthy-ori […]-1 cells (endogenous receptor), response reduced by CRISPR/Cas9 OR2H2 knockout; cAMP assay. In kind it is cell-based.

Regarding aldehyde 13-13, the concentration giving a half-maximal response (EC50) came to 366 µM.

The EC50 is the concentration giving half of the maximal effect. Read a low EC50 as a more potent agent.
